Measurements from patent US10124012B2, “Method for treatment of hyperglycemia and hyperlipidemia” (priority 2016, dated 2018).

Legend:
Type in all cases: in vivo, C57BL/6J mice
[1] = system: high-fat diet-fed C57BL/6J mouse; assay: Body weight, tissue weights and food intake in HFD-fed mice; settings: for Absolute tissue weight Visceral fat: sum of EWAT and RWAT
Source text: (§1) The 4-week old male C57BL/6J mice (total amount n=63) were obtained from the National Laboratory Animal Center (Taipei, Taiwan). After acclimatization for one week, all of the mice were randomly assigned into a control (CON) group and a high-fat diet (HFD) group. […] After HFD feeding for 8 weeks, the HFD group was randomly subdivided into six groups (n=9 per group) receiving different treatments and fed on HFD. […] The HF+AnK1, HF+AnK2, and HF+AnK3 groups are collectively termed AnK-treated HFD groups in the following examples. The CON mice were administered vehicle. All treatments were administered via oral gavage once daily. After administration for 4 weeks, all mice were fasted 12 hours, and blood was collected from the retro-orbital sinus under ether anesthesia. At the end of the experiment, the mice were sacrificed via carbon dioxide inhalation. Liver, adipose tissue, and skeletal muscle were collected and immediately stored at −80° C. for target gene analysis.
The metabolic parameters, including body weight, weight gain, and food intake, were performed as the following. Body weight was daily measured at the same time throughout the study. Body weight gain is considered as the weight difference between two consecutive days. The amount of pellet food was weighted, followed by weighting the amount of remaining food after 24 hours. The difference between the two weights is defined as daily food intake.

PPARα = assay: Liver mRNA by semi-quantitative RT-PCR: PPARα; settings: HFD-fed mice, oral gavage once daily 4 weeks, AnK 10, 20, 40, Feno 250, Metf 300 mg/kg/day, vs HF group
Source text: as §1, with “At the end of the experiment, the mice were sacrificed via carbon dioxide inhalation. Liver, adipose tissue, and skeletal muscle were collected and immediately stored at −80° C. for target gene analysis.” left out
Total RNA from liver tissue of mice was isolated with a Trizol Reagent (Molecular Research Center, Inc., Cincinnati, Ohio, USA) according to the manufacturer's instructions. The integrity of the extracted total RNA was examined by 2% agarose gel electrophoresis, and the RNA concentration was determined by the ultraviolet (UV) light absorbency at 260 nm and 280 nm (Spectrophotometer U-2800A, Hitachi). […]
Levels of mRNA of target genes were quantified by semi-quantitative reverse transcription polymerase chain reaction (RT-PCR). […] PCR products were analyzed by 2% agarose gel and stained with ethidium bromide.

[2] = system: high-fat diet-fed C57BL/6J mouse; assay: Histopathology of epididymal white adipose tissue (adipocyte hypertrophy); settings: mean area of epididymal adipocyte, HFD-fed mice
Procedure: (§2) Animal studies were performed and approved under the guidelines of the Institutional Animal Care and Use Committee in Taiwan (12 Mar. 2015). The 4-week old male C57BL/6J mice (total amount n=63) were obtained from the National Laboratory Animal Center (Taipei, Taiwan). After acclimatization for one week, all of the mice were randomly assigned into a control (CON) group and a high-fat diet (HFD) group. For the following 12 weeks, the CON group (n=9) received a control diet or a low-fat diet (Diet 12450B, Research Diets, Inc., New Brunswick, N.J., USA), while the HFD group (n=54) received a high-fat diet (Diet 12451, Research Diets, New Brunswick, N.J., USA). The low-fat diet was composed of protein 20%, carbohydrate 70% and fat 10%, whereas the high-fat diet was composed of protein 20%, carbohydrate 35%, and fat 45% (of total energy, % kcal). After HFD feeding for 8 weeks, the HFD group was randomly subdivided into six groups (n=9 per group) receiving different treatments and fed on HFD. […] The HF+AnK1, HF+AnK2, and HF+AnK3 groups are collectively termed AnK-treated HFD groups in the following examples. The CON mice were administered vehicle. All treatments were administered via oral gavage once daily. After administration for 4 weeks, all mice were fasted 12 hours, and blood was collected from the retro-orbital sinus under ether anesthesia. At the end of the experiment, the mice were sacrificed via carbon dioxide inhalation. Liver, adipose tissue, and skeletal muscle were collected and immediately stored at −80° C. for target gene analysis.
(§3) Parts of visceral adipose and liver specimens were fixed with formalin (200 g/kg) neutral buffered solution and embedded in paraffin. A series of 8 μm-thick sections was cut and stained with hematoxylin and eosin. For microscopic examination, a microscope (Olympus BX51, Olympus, Tokyo, Japan) was used and the images were photographed.
Adipocyte hypertrophy, the pathological enlargement of adipocytes, is often found in subjects with type 2 diabetes and hyperlipidemia. To verify the therapeutic effect of AnK on adipocyte hypertrophy, morphology of the epididymal white adipose tissue from mice of the HF group and the AnK-treated HFD groups was examined. Micrographs (magnification 200X) of the EWAT sections for each group were shown in FIG. 4 and analyzed to determine the mean area of an epididymal adipocyte.

[3] = system: high-fat diet-fed C57BL/6J mouse; assay: Histopathology of liver (hepatocellular ballooning); settings: grade 0 absence, 1 few cells, 2 many cells (Table 4), HFD-fed mice
Procedure: as §2, §3
On the basis of previous study, the degree of hepatocellular ballooning is defined in TABLE 4: […]

[4] = HF + Metf: metformin 300 mg/kg/day oral gavage 4 weeks
[5] = HF + AnK1: AnK 10 mg/kg/day oral gavage 4 weeks
[6] = HF + AnK2: AnK 20 mg/kg/day oral gavage 4 weeks
[7] = HF + AnK3: AnK 40 mg/kg/day oral gavage 4 weeks

In the case of `CN(C)C(=N)N=C(N)N` [Metf, metformin, reference compound], the “Absolute tissue weight BAT” value [1, 4] is reported as 0.220 ± 0.025 g, the “Absolute tissue weight EWAT” value [1, 4] is reported as 0.813 ± 0.064 g and the “Absolute tissue weight Liver” value [1, 4] is reported as 0.908 ± 0.031 g. For the same compound, the “Absolute tissue weight MWAT” value [1, 4] was 0.270 ± 0.018 g, the “Absolute tissue weight RWAT” value [1, 4] was 0.298 ± 0.027 g and the “Absolute tissue weight Skeletal muscle” value [1, 4] was 0.380 ± 0.025 g. The “Absolute tissue weight Spleen” value [1, 4] was 0.093 ± 0.006 g, the Final body weight [1, 4] was 27.86 ± 0.72 g and the Food intake [1, 4] was 1.89 ± 0.04 g/day/mouse. The Weight gain [1, 4] was 0.92 ± 0.08 g, the “Absolute tissue weight Visceral fat” value [1, 4] was 1.111 ± 0.077 g and the “PPARα mRNA levels” value (PPARα) was “increased”. For the same compound, the Adipocyte size [2, 4] was 5873.7 ± 345.1 μm^2 and the “Hepatocellular ballooning Mean score” value [3, 4] was 0.7 ± 0.2.

With `C=C(CC[C@@H](C)[C@H]1CC[C@H]2C3=C(C(=O)C[C@]12C)[C@@]1(C)CC[C@@H](O)[C@](C)(O)[C@@H]1C[C@@H]3O)C(C)C(=O)O` (stereo partly drawn) [AnK, 3α,4β,7β-trihydroxy-4α-methylergosta-8,24(28)-dien-11-on-25S-26-oic acid] the “Absolute tissue weight BAT” value [1, 5] was 0.178 ± 0.007 g, the “Absolute tissue weight EWAT” value [1, 5] was 0.867 ± 0.065 g and the “Absolute tissue weight Liver” value [1, 5] was 0.946 ± 0.030 g. For the same compound, the “Absolute tissue weight MWAT” value [1, 5] was 0.349 ± 0.020 g, the “Absolute tissue weight RWAT” value [1, 5] was 0.323 ± 0.039 g and the “Absolute tissue weight Skeletal muscle” value [1, 5] was 0.395 ± 0.036 g. The “Absolute tissue weight Spleen” value [1, 5] was 0.090 ± 0.003 g, the Final body weight [1, 5] was 28.30 ± 0.61 g and the Food intake [1, 5] was 1.95 ± 0.05 g/day/mouse. For the same compound, the Weight gain [1, 5] was 1.39 ± 0.81 g, the “Absolute tissue weight BAT” value [1, 6] was 0.172 ± 0.010 g and the “Absolute tissue weight EWAT” value [1, 6] was 0.841 ± 0.062 g. The “Absolute tissue weight Liver” value [1, 6] was 0.888 ± 0.019 g, the “Absolute tissue weight MWAT” value [1, 6] was 0.340 ± 0.013 g and the “Absolute tissue weight RWAT” value [1, 6] was 0.339 ± 0.031 g. The “Absolute tissue weight Skeletal muscle” value [1, 6] was 0.364 ± 0.022 g, the “Absolute tissue weight Spleen” value [1, 6] was 0.085 ± 0.003 g and the Final body weight [1, 6] was 27.55 ± 0.72 g. For the same compound, the Food intake [1, 6] was 1.92 ± 0.07 g/day/mouse, the Weight gain [1, 6] was 0.70 ± 0.86 g and the “Absolute tissue weight BAT” value [1, 7] was 0.175 ± 0.008 g. For the same compound, the “Absolute tissue weight EWAT” value [1, 7] was 0.809 ± 0.058 g, the “Absolute tissue weight Liver” value [1, 7] was 0.883 ± 0.018 g and the “Absolute tissue weight MWAT” value [1, 7] was 0.332 ± 0.025 g. For the same compound, the “Absolute tissue weight RWAT” value [1, 7] was 0.306 ± 0.040 g, the “Absolute tissue weight Skeletal muscle” value [1, 7] was 0.364 ± 0.028 g and the “Absolute tissue weight Spleen” value [1, 7] was 0.104 ± 0.007 g. For the same compound, the Final body weight [1, 7] was 27.48 ± 0.46 g, the Food intake [1, 7] was 1.98 ± 0.04 g/day/mouse and the Weight gain [1, 7] was 0.58 ± 0.35 g. For the same compound, the “Absolute tissue weight Visceral fat” value [1, 5] was 1.190 ± 0.093 g, the “Absolute tissue weight Visceral fat” value [1, 6] was 1.180 ± 0.106 g and the “Absolute tissue weight Visceral fat” value [1, 7] was 1.154 ± 0.096 g. The “PPARα mRNA levels” value (PPARα) was “increased”, the Adipocyte size [2, 5] was 6548.6 ± 214.7 μm^2 and the Adipocyte size [2, 6] was 6483.8 ± 319.8 μm^2. For the same compound, the Adipocyte size [2, 7] was 5670.8 ± 281.6 μm^2, the “Hepatocellular ballooning Mean score” value [3, 5] was 0.7 ± 0.2 and the “Hepatocellular ballooning Mean score” value [3, 6] was 0.5 ± 0.2. The “Hepatocellular ballooning Mean score” value [3, 7] was 0.4 ± 0.2.
